This is an account of results in PubChem BioAssay (NCI).

The structures appear in SMILES notation.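 Protocol summary: plate cells (96-well), add compound at 5 concentrations, incubate 48 h, interpolate endpoints linearly. GI50 is the concentration that inhibits growth by half. Definition used: TGI = concentration required for complete inhibition of growth.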

Common to all, as to assay: NCI anticancer screen, dose series, 48 h
Experiment [1] has as its system A498 renal.
Experiment [2] relates to NCI-H226 lung.
Experiment [3] relates to NCI-H522 lung.
Experiment [4] concerns TK-10 renal.
Experiment [5] has as its system NCI-H460 lung.
The test system of experiment [6] is K-562 leukemia.
In experiment [7] the test system is HCT-116 colon.
Experiment [8] has as its system SF-268 CNS.
Experiment [9] has as its system SK-MEL-2 melanoma.
For experiment [10], the system named is HL-60(TB) leukemia.

On to `Nc1nonc1-c1nc2ccccc2n1Cc1ccc(F)cc1`, for which the GI50 is 2.2 µM in experiment [1]; greater than 100 µM in experiment [2]; 4.42 µM in experiment [3]; 6.78 µM in experiment [4]; 4.25 µM in experiment [5]; 4.37 µM in experiment [6]. Moreover, the values for the GI50 in experiment [7] and in experiment [8] were 4.81 µM and 9.61 µM, respectively. The TGI in [1], in experiment [2], in experiment [3], in experiment [4], in experiment [5] and in experiment [6] was greater than 100 µM throughout. Moreover, the TGI in [7] and in experiment [8] was greater than 100 µM throughout.
Take `N#CC1=C(N)NC(=S)NC1c1ccc(-c2ccc(-c3nc4ccccc4o3)cc2)s1` (stereo not given): the GI50 in experiment [3] was 9.65 µM; in experiment [9] it was 9.2 µM; in [4], 18.6 µM; in [5], 7.58 µM; in experiment [6] it was 4.7 µM; in experiment [7], 7.71 µM. Moreover, the GI50 in experiment [8] was 10.7 µM; in experiment [10], 24.1 µM. Besides, the TGI in experiment [3] is 20.8 µM; in experiment [9] it was 28.8 µM; in experiment [4], greater than 50 µM; in [5], 15.9 µM; in experiment [6], 15.5 µM; in [7], 14.4 µM. For the same compound, the TGI was 26.5 µM in experiment [8] and greater than 50 µM in experiment [10].
Turning to `CC1=CC(C)(c2c[nH]c3ccccc23)CC(C)(C)c2c1[nH]c1ccccc21` (stereo not given), the TGI in experiment [1] is 37.8 µM; in [2], 37.1 µM; in [4], greater than 100 µM; in [5], 34.5 µM; in experiment [6], 53.9 µM; in experiment [7], 26.7 µM. Also, the TGI in [8] was greater than 100 µM.
For `O=S(=O)(NCCNc1nccc(-c2c(-c3ccc(F)c(O)c3)nc3sccn23)n1)c1ccc(Cl)cc1`, the GI50 was 1.63 µM in experiment [1]; 1.8 µM in experiment [2]; 2.08 µM in experiment [3]; 1.64 µM in experiment [9]; 5.16 µM in experiment [4]; 1.93 µM in [5]. Further, the GI50 is 1.54 µM in experiment [7] and 1.8 µM in [8]. Also, the TGI in experiment [1] is 11.7 µM; in [2], 18.4 µM; in experiment [3], 18.6 µM; in experiment [9], 7.99 µM; in [4], 34.6 µM; in experiment [5] it was greater than 50 µM. Also, the TGI in experiment [7] was greater than 50 µM; in experiment [8] it was 13.4 µM.
As to `CCO/S(=N/S(=O)(=O)c1ccccc1)c1ccccc1[N+](=O)[O-]` (stereo not given), the TGI in experiment [2], in experiment [3], in experiment [9], in experiment [5], in experiment [6] and in [8] was greater than 100 µM in each case.
Consider `CC(=O)Oc1ccc2c(c1)[C@@]1(C)CCCC(C)(C)[C@@H]1CC2`, for which the GI50 in [2] was 18.5 µM; in [3], 24.2 µM; in experiment [9] it was 29.8 µM; in [5] it was 27.5 µM; in experiment [6] it was 40 µM; in experiment [7], 18.4 µM. Further, the GI50 in experiment [8] was 20.9 µM; in experiment [10], 34.7 µM. The TGI in experiment [2] is 37.4 µM; in [3], 69.2 µM; in experiment [9] it was greater than 100 µM; in experiment [5] it was 90.5 µM; in experiment [6] it was greater than 100 µM; in experiment [7], 32.8 µM. For the same compound, the results for the TGI in [8] and in [10] were 47.9 µM and greater than 100 µM, respectively.
Regarding `[N-]=[N+]=NCCCn1c2c(c3ccc([N+](=O)[O-])cc3c1=O)C(=O)c1cc3c(cc1-2)OCO3`, the GI50 in experiment [2] is less than 0.01 µM; in experiment [3], 0.109 µM; in experiment [9], 2.58 µM; in [4], 2.26 µM; in experiment [5] it was less than 0.01 µM; in [7], less than 0.01 µM. For the same compound, the GI50 in [10] is less than 0.0281 µM. For the same compound, the TGI in experiment [2] is 2.34 µM; in experiment [3] it was 0.844 µM; in experiment [9] it was 22.3 µM; in [4], 19.9 µM; in experiment [5], 0.501 µM; in [6] it was greater than 100 µM. In addition, the TGI in experiment [7] was 1.18 µM; in [10] it was greater than 100 µM.
As for `COc1cccc(-c2nn(-c3ccccc3)cc2-c2ccnc(NCCCNC(=O)c3cccc(C(F)(F)F)c3)c2)c1`, the GI50 in [2] was 2.24 µM; in [3] it was 2.58 µM; in [9], 7.23 µM; in experiment [4], 7.33 µM; in experiment [5], 4.03 µM; in experiment [6], 3.69 µM. The GI50 in experiment [7] is 3.81 µM; in [8], 9.51 µM; in experiment [10], 3.27 µM. Also, the TGI in experiment [2] was 10.7 µM; in experiment [3], 12.2 µM; in [9], 23.6 µM; in experiment [4], 31.2 µM; in [5], 18.2 µM; in experiment [6] it was 31.3 µM. Besides, the TGI in experiment [7] was 16.1 µM; in [8] it was 87.8 µM; in [10] it was 13.1 µM.
Turning to `C=C1c2ccccc2C(=O)c2c1c1c(C(=O)OC)c(OC(=O)OCc3ccc([N+](=O)[O-])cc3)ccc1n2Cc1ccccc1`, the GI50 in experiment [1] is 65.5 µM; in experiment [2], 19.6 µM; in [3] it was 6.83 µM; in [9] it was 23.9 µM; in [4], 21.1 µM; in [5], 26.8 µM. Further, the GI50 was 2.55 µM in experiment [6], 4.48 µM in experiment [7] and 46.4 µM in [8]. Further, the TGI in [1] was greater than 100 µM; in experiment [2], 44.1 µM; in [3], 38.6 µM; in experiment [9] it was greater than 100 µM; in experiment [4], greater than 100 µM; in [5], 88.6 µM. Also, the TGI was greater than 100 µM in experiment [6], 20.4 µM in experiment [7] and greater than 100 µM in experiment [8].
For `Cc1coc2c1C(=O)C(=O)c1ccccc1-2`, the TGI in experiment [1] turned out to be 3.25 µM; in experiment [2] it was 2.55 µM; in experiment [9], 3.78 µM; in experiment [4], 3.3 µM; in [5], 3.18 µM; in [6] it was 1.44 µM. In addition, the TGI in [7] amounted to 0.879 µM.
